Assay [1] is described as follows: MIC against ESKAPE pathogens, aerobic. Type of assay: cell-based. The note with it: aerobic conditions, single concentration screen, n = 3; read-out: MIC ESKAPE bacteria. The procedure: All compounds were tested for activity against a set of anaerobic C. difficile bacteria (630 ATCC BAA-1382, NAP1/027 M7404, NAP1/027 ATCC BAA-1803, VPI10463 ATCC 43255, CD26A54_S and CD26A54_R) and representative ESKAPE pathogens S. aureus (MRSA ATCC 43300), E. coli (ATCC 25922), K. pneumoniae (ATCC 700603), A. baumannii (ATCC 19606) and P. aeruginosa (ATCC 27853) using a standard broth microdilution assay. Selected compounds were tested for activity against H. pylori strains (26695, and clinical isolates MtzS 13/25, MtzR 98/285 and MtzR 13/61) using agar plate dilution, and for antimicrobial activity against twelve Gram-positive bacterial strains: Enterococcus faecalis (VanA clinical isolate), Enterococcus faecium (MDR VanA ATCC 51559), Streptococcus pneumoniae (MDR ATCC 700677), S. aureus (MRSA ATCC 43300, MRSA clinical isolate, MRSA/DRSA clinical isolate, GISA NARSA NRS 1, GISA NARSA NRS 17, VRSA NARSA VRS1, VRSA NARSA VRS4 and VRSA NARSA VRS10) using broth microdilution. C. difficile strains were grown at 37 °C in a COY anaerobic chamber (5% H2, 10% CO2, 85% N2). H. pylori strains were grown at 37 °C under a microaerobic atmosphere (5% O2, 10% CO2). All facultative anaerobic bacteria were grown at 37 °C with normal atmospheric oxygen levels. […] Positive growth control of bacteria and DMSO as well as a negative control of only media were included for every plate. Full assay details are provided in the supplementary information.
MICs were determined by a two-fold serial broth micro dilution according to the recommendation of CLSI standards with an inoculum of 5 × 10^5 CFU/mL^4 The compounds along with standard antibiotics were serially diluted twofold across the wells of 96-well non-binding surface plates (NBS, Corning). […] Gram-positive and Gram-negative bacteria were cultured in Mueller Hinton broth (MHB) (Bacto laboratories, Cat. no. 211443) at 37 °C overnight. A sample of each culture was then diluted 40-fold in fresh MHB broth and incubated at 37 °C for 2-3 h. The resultant mid-log phase cultures were diluted to the final concentration of 5 × 10^5 CFU/mL, then 50 μL was added to each well of the compound containing 96-well plates. All the plates were covered and incubated at 37 °C for 24 h.

Assay [2] concerns G. lamblia BRIS/83/HEPU/106 (106). In words: ATP-bioluminescence growth and survival assay, G. lamblia 106. Type of assay: cell-based. The note with it: Giardia duodenalis, read-out: EC50 G. lamblia 106. On the procedure: Compounds were tested for antiparasitic activity against E. histolytica (HM1:1MSS strain) and G. lamblia (WB, BRIS/87/HEPU/713 (713), BRIS/83/HEPU/106 (106) and the metronidazole resistant syngeneic line 713-M3 [[15,16]]) using an ATP-bioluminescence based screen for cell growth and survival [[17,18]]. Assay plates were inoculated with trophozoites (5 × 10^3 parasites/well) and incubated in the GasPak™ EZ Anaerobe Gas Generating Pouch Systems (VWR, West Chester, PA) to maintain anaerobic conditions throughout the incubation period. The assays were performed in triplicate using the CellTiter-Glo Luminescent Cell Viability Assay. Metronidazole was used as a positive control.
Trophozoites of E. histolytica strain HM1:IMSS and G. lamblia strains WB, BRIS/87/HEPU/713 (713),^10 BRIS/83/HEPU/106 (106)^11 and the metronidazole resistant syngenic line 713-M3^10,11 were axenically maintained in TYI-S-33 medium supplemented with penicillin (100 U/ml), streptomycin (100 µg/ml).^12 E. histolytica and G. lamblia trophozoites were counted using a particle counter (Beckman Coulter, Fullerton, CA). All experiments were performed using trophozoites harvested during the logarithmic phase of growth.
A three-fold serial dilution was then performed yielding a concentration range 0.25-625 µM. From this dilution plate, 4 µL were transferred into the 96-well screen plates followed by addition of 96 µL of trophozoites (5,000 parasites) to yield a final 8-point concentration range spanning 0.01- 25 µM. Assay plates were incubated for 48 h at 37 °C in the GasPak^TM EZ Anaerobe Gas Generating Pouch Systems (VWR, West Chester, PA) to maintain anaerobic condition throughout the incubation period. The assays were performed in triplicate using the CellTiter-Glo Luminescent Cell Viability Assay.^13

Each structure is given as a SMILES string. pEC50: −log10 of the molar value. Where two headings read alike, the source gives them in different places. A value given as a limit tells only on which side of the number the result lay.

One may read the MIC as the lowest concentration found to suppress growth. Usually pEC50 stands for the EC50 on a negative log10 scale, so that one unit is a factor of ten.

Regarding `Cc1ncc([N+](=O)[O-])n1CCn1cc(CN2CCS(=O)(=O)CC2)nn1` [Compound 4o, 1-(2-(2-methyl-5-nitro-1H-imidazol-1-yl)ethyl)-4-((1,1-dioxothiomorpholin-4-yl)methyl)-1H-1,2,3-triazole], the MIC in assay [1] is over 32 µg/mL. Turning to `Cc1ncc([N+](=O)[O-])n1CCO` [Compound 1, metronidazole], in assay [2] (MtzS, purified compounds, this study), the negative logarithm of the EC50 (pEC50) is 5.55. In addition, the minimum inhibitory concentration (MIC) in assay [1] is over 32 µg/mL. `Cc1ncc([N+](=O)[O-])n1CCn1cc(-c2ccc(Cl)c(Cl)c2)nn1` [Compound 4d, 1-(2-(2-methyl-5-nitro-1H-imidazol-1-yl)ethyl)-4-(3,4-dichlorophenyl)-1H-1,2,3-triazole]: the negative logarithm of the EC50 (pEC50) in assay [2] is 5.96. Besides, in assay [1], the MIC is over 32 µg/mL. In the same order, the values of `Cc1ncc([N+](=O)[O-])n1CCn1cc(-c2ccsc2)nn1` [Compound 4n, 1-(2-(2-methyl-5-nitro-1H-imidazol-1-yl)ethyl)-4-(thiophen-3-yl)-1H-1,2,3-triazole] are 6.47 and over 32 µg/mL. Take `Cc1ncc([N+](=O)[O-])n1CCn1cc(-c2cncnc2)nn1` [Compound 4i, 1-(2-(2-methyl-5-nitro-1H-imidazol-1-yl)ethyl)-4-(5-pyrimidinyl)-1H-1,2,3-triazole]: the MIC in assay [1] was over 32 µg/mL. Take `Cc1ccc(-c2cn(CCn3c([N+](=O)[O-])cnc3C)nn2)cc1` [Compound 4e, 1-(2-(2-methyl-5-nitro-1H-imidazol-1-yl)ethyl)-4-(p-tolyl)-1H-1,2,3-triazole]: the negative-log EC50 (pEC50) in assay [2] was 6.54. The minimum inhibitory concentration (MIC) in assay [1] is over 32 µg/mL. For `COc1ccc(-c2cn(CCn3c([N+](=O)[O-])cnc3C)nn2)cc1` [Compound 4b, 1-(2-(2-methyl-5-nitro-1H-imidazol-1-yl)ethyl)-4-(4-methoxyphenyl)-1H-1,2,3-triazole], in that order: 6.19 and over 32 µg/mL.

Consider `COC(=O)c1cn(CCn2c([N+](=O)[O-])cnc2C)nn1` [Compound 4f, 1-(2-(2-methyl-5-nitro-1H-imidazol-1-yl)ethyl)-4-(methoxycarbonyl)-1H-1,2,3-triazole], for which, in assay [2], the negative-log EC50 (pEC50) was 5.70. Also, the minimum inhibitory concentration (MIC) in assay [1] is over 32 µg/mL. In the same order, the values of `Cc1ncc([N+](=O)[O-])n1CCn1cc(-c2ccccc2)nn1` [Compound 4a, 1-(2-(2-methyl-5-nitro-1H-imidazol-1-yl)ethyl)-4-phenyl-1H-1,2,3-triazole] are 6.55 and over 32 µg/mL.

Turning to `Cc1ncc([N+](=O)[O-])n1CCn1cc(CN(C)Cc2ccccc2)nn1` [Compound 4m, 1-(2-(2-methyl-5-nitro-1H-imidazol-1-yl)ethyl)-4-(N-benzyl, N-methylaminomethyl)-1H-1,2,3-triazole], the pEC50 in assay [2] was 5.96. Besides, the minimum inhibitory concentration (MIC) in assay [1] was over 32 µg/mL. Turning to `Cc1ncc([N+](=O)[O-])n1CCn1cc(Cn2cccn2)nn1` [Compound 4g, 1-(2-(2-methyl-5-nitro-1H-imidazol-1-yl)ethyl)-4-((1H-pyrazol-1-yl)methyl)-1H-1,2,3-triazole], the MIC in assay [1] was over 32 µg/mL. Still for that read-out and setting: then `Cc1ncc([N+](=O)[O-])n1CCn1cc(C(=O)O)nn1` [Compound 4s, 1-(2-(2-methyl-5-nitro-1H-imidazol-1-yl)ethyl)-4-(carboxy)-1H-1,2,3-triazole], with over 32 µg/mL.

On to `Cc1ncc([N+](=O)[O-])n1CCn1cc(C(O)c2ccccc2)nn1` (stereo not drawn) [Compound 4l, 1-(2-(2-methyl-5-nitro-1H-imidazol-1-yl)ethyl)-4-(1-phenyl-1-hydroxylmethyl)-1H-1,2,3-triazole], for which the negative logarithm of the EC50 (pEC50) in assay [2] is 5.66. Further, in assay [1], the minimal inhibitory concentration (MIC) was over 32 µg/mL. For `Cc1ncc([N+](=O)[O-])n1CCn1cc(-c2ccc(Cl)cc2)nn1` [Compound 4c, 1-(2-(2-methyl-5-nitro-1H-imidazol-1-yl)ethyl)-4-(4-chlorophenyl)-1H-1,2,3-triazole], in that order: 6.05 and over 32 µg/mL. Turning to `Cc1ncc([N+](=O)[O-])n1CCn1cc(CCO)nn1` [Compound 4p, 1-(2-(2-methyl-5-nitro-1H-imidazol-1-yl)ethyl)-4-(2-hydroxyethyl)-1H-1,2,3-triazole], in assay [1], the minimal inhibitory concentration (MIC) was over 32 µg/mL.

In the case of `Cc1ncc([N+](=O)[O-])n1CCn1cc(-c2ncccn2)nn1` [Compound 4j, 1-(2-(2-methyl-5-nitro-1H-imidazol-1-yl)ethyl)-4-(2-pyrimidinyl)-1H-1,2,3-triazole], the MIC in assay [1] was over 32 µg/mL. For the compound `Cc1ncc([N+](=O)[O-])n1CCn1cc(CN)nn1.O=C(O)C(F)(F)F` [Compound 4t, 1-(2-(2-methyl-5-nitro-1H-imidazol-1-yl)ethyl)-4-(aminomethyl)-1H-1,2,3-triazole trifluoroacetate salt], the MIC in assay [1] was over 32 µg/mL. As for `Cc1ncc([N+](=O)[O-])n1CCn1cc(CO)nn1` [Compound 4q, 1-(2-(2-methyl-5-nitro-1H-imidazol-1-yl)ethyl)-4-(hydroxymethyl)-1H-1,2,3-triazole], the MIC in assay [1] was over 32 µg/mL. As to `Cc1ncc([N+](=O)[O-])n1CCn1cc(CCC(=O)O)nn1` [Compound 4r, sodium 1-(2-(2-methyl-5-nitro-1H-imidazol-1-yl)ethyl)-4-(carboxyethyl)-1H-1,2,3-triazole], in assay [1], the minimum inhibitory concentration (MIC) is over 32 µg/mL. Regarding `Cc1ncc([N+](=O)[O-])n1CCn1cc(-c2ccccn2)nn1` [Compound 4h, 1-(2-(2-methyl-5-nitro-1H-imidazol-1-yl)ethyl)-4-(2-pyridinyl)-1H-1,2,3-triazole.xTFA], in assay [2], the negative-log EC50 (pEC50) is 6.42. Further, the MIC in assay [1] was over 32 µg/mL. For `Cc1ncc([N+](=O)[O-])n1CCn1cc(Cc2ccccc2)nn1` [Compound 4k, 1-(2-(2-methyl-5-nitro-1H-imidazol-1-yl)ethyl)-4-benzyl-1H-1,2,3-triazole], the pEC50 in assay [2] is 6.29. Further, the minimal inhibitory concentration (MIC) in assay [1] is over 32 µg/mL.

For the origin of these results see publication PMC4550478, “Metronidazole-triazole conjugates: Activity against Clostridium difficile and parasites” (European Journal of Medicinal Chemistry, 2015).
